For this experiment, the system named is post-pulpectomy root canal of a tooth of the canine of middle or advanced age. Put plainly: Dental pulp regeneration after trypsin pretreatment plus root canal filler containing CCR3 antagonist. In kind it is in vivo, dog. The conditions noted are these: pretreatment with trypsin (50 μg/ml with nanobubble liquid, 10 minutes) then filler with 200 ng; after 14 days; vs no pretreatment. How it is done:
After 7 to 14 days following a pulpectomy treatment, the treated root canal underwent alternate washing, and then, washing with physiologic saline. Smear clean was then allowed to react for 2 minutes. The root canal was then further washed with physiologic saline, and dried. Further, FRANCETIN⋅T⋅POWDER (2,500 USP of crystalized trypsin per 10 mg) (MOCHIDA PHARMACEUTICAL CO., LTD.) was mixed with a nanobubble liquid into a 50 μg/ml (0.05%) solution. The solution was allowed to react for 10 minutes. The root canal was washed with physiologic saline, and dried. In the same manner as in Example 3, a root canal filler was prepared by suspending 1×10^6 allogeneic dental pulp stem cells, which had been membrane-isolated, in 40 μl of a scaffold (Koken Atelocollagen Implant), and by suspending 3 μl of a 100 μg/ml G-CSF (NEUTROGIN). Further a CCR3 antagonist (SB328437, 200 ng) was added to the root canal filler. The root canal filler was injected into the post-pulpectomy root canal. After 14 days following the transplantation, the tooth was extracted, and 5 μm paraffin sections were prepared. The paraffin sections were then H-E stained to undergo morphological observation.

These results are taken from patent US10668134B2, “Dental pretreatment material and dental tissue regeneration kit” (National Center for Geriatrics and Gerontology, priority 2016, dated 2020).

Consider `COC(=O)[C@H](Cc1ccc([N+](=O)[O-])cc1)NC(=O)c1cccc2ccccc12` [CCR3 antagonist, SB328437], for which the “amount of regenerated dental pulp tissue” value was “significant increase”.
